Results reported in ChEMBL document CHEMBL1201862, “PubChem BioAssay data set” (2004).
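Growth conditions: 96-well plates. Treatment: test compound, 48 hours, 5 concentrations. Analysis: linear interpolation between bracketing concentrations; unreached endpoints set to highest concentration. Here, GI50 denotes the concentration required for 50% inhibition of growth.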 The source made the active and inactive calls. Rule as the data show it: active = GI50 up to about 1.1 µM and inactive = higher.

Legend:
Assay in all cases: NCI-60 cell line screen, 48 h
UACC-257 = tested on: UACC-257
MOLT-4 = tested on: MOLT-4
SNB-75 = tested on: SNB-75
A498 = tested on: A498
OVCAR-4 = tested on: OVCAR-4
CAKI-1 = tested on: CAKI-1
RXF 393 = tested on: RXF 393
HCC 2998 = tested on: HCC 2998
SK-MEL-5 = tested on: SK-MEL-5
A549 = tested on: A549
EKVX = tested on: EKVX
LOX IMVI = tested on: LOX IMVI
OVCAR-5 = tested on: OVCAR-5
HCT-116 = tested on: HCT-116
K562 = tested on: K562
NCI-H460 = tested on: NCI-H460
SW-620 = tested on: SW-620
SR = tested on: SR
M14 = tested on: M14

Row | SMILES | GI50 (UACC-257) | GI50 (MOLT-4) | GI50 (SNB-75) | GI50 (A498) | GI50 (OVCAR-4) | GI50 (CAKI-1) | GI50 (RXF 393) | GI50 (HCC 2998) | GI50 (SK-MEL-5) | GI50 (A549) | GI50 (EKVX) | GI50 (LOX IMVI) | GI50 (OVCAR-5) | GI50 (HCT-116) | GI50 (K562) | GI50 (NCI-H460) | GI50 (SW-620) | GI50 (SR) | GI50 (M14)
1 | CC1(C)CC23C4COC(=O)C2CCC1C3CC4=O (centres undefined) | 9.59 µM (inactive) | 5.87 µM (inactive) | 19.8 µM (inactive) | 5.92 µM (inactive) | 15.2 µM (inactive) | 5.47 µM (inactive) | 1.71 µM (inactive) | 13.9 µM (inactive) | 9.86 µM (inactive) | 19.1 µM (inactive) | 26.7 µM (inactive) | 8.39 µM (inactive) | 32.6 µM (inactive) | 6.71 µM (inactive) | 9.84 µM (inactive) | 11.1 µM (inactive) | 3.04 µM (inactive) |  | 
2 | CCCCSCC(NC(=O)/C=C/c1c(C)[nH]c(=O)[nH]c1=O)C(=O)OC (centres undefined) | 81.7 µM (inactive) | 50.1 µM (inactive) | 55.5 µM (inactive) | 79.6 µM (inactive) | 13.8 µM (inactive) | 32.3 µM (inactive) | 56.5 µM (inactive) | 29 µM (inactive) | 64.9 µM (inactive) | 124 µM (inactive) | 34.2 µM (inactive) | 78.3 µM (inactive) | 77.1 µM (inactive) | 30.3 µM (inactive) | 44.1 µM (inactive) | 57.5 µM (inactive) | 78 µM (inactive) |  | 
3 | C=C/C=C/NC(=O)OCc1ccccc1 | > 100 µM (inactive) | > 100 µM (inactive) | > 100 µM (inactive) |  | > 100 µM (inactive) | > 100 µM (inactive) | > 100 µM (inactive) |  | > 100 µM (inactive) | > 100 µM (inactive) | > 100 µM (inactive) | > 100 µM (inactive) | > 100 µM (inactive) | > 100 µM (inactive) | > 100 µM (inactive) | > 100 µM (inactive) | > 100 µM (inactive) | 98.9 µM (inactive) | > 100 µM (inactive)
4 | N=S(c1ccccc1[N+](=O)[O-])c1ccccc1[N+](=O)[O-] | 2.54 µM (inactive) | 2.61 µM (inactive) | 6.34 µM (inactive) | 16.6 µM (inactive) | 0.553 µM (active) | 3.3 µM (inactive) | 4.06 µM (inactive) | 5.32 µM (inactive) | 3.2 µM (inactive) | 6.67 µM (inactive) | 7.73 µM (inactive) | 0.944 µM (active) | 6.08 µM (inactive) | 1.5 µM (inactive) |  |  |  |  | 2.09 µM (inactive)
5 | Cc1ccc2c(c1)C1(OC(=O)c3ccccc31)c1ccc(F)cc1O2 (centres undefined) | 31 µM (inactive) | 20.3 µM (inactive) |  |  | 49.8 µM (inactive) | 30 µM (inactive) |  | 66.1 µM (inactive) | 32.7 µM (inactive) | 48.9 µM (inactive) | 59 µM (inactive) | 39.6 µM (inactive) | > 100 µM (inactive) | 32.7 µM (inactive) | 35 µM (inactive) |  | 34.6 µM (inactive) | 25.5 µM (inactive) | 28.6 µM (inactive)
6 | CCC(C(C)N1CC(=O)NC(=O)C1)N1CC(=O)NC(=O)C1 (centres undefined) | > 100 µM (inactive) | 0.69 µM (active) | > 48.9 µM (inactive) | > 100 µM (inactive) | > 100 µM (inactive) | > 100 µM (inactive) | > 100 µM (inactive) | > 61.4 µM (inactive) | 12.5 µM (inactive) | 1.51 µM (inactive) | > 19.7 µM (inactive) | > 100 µM (inactive) | > 25.1 µM (inactive) | 23.4 µM (inactive) | 9.77 µM (inactive) | 0.141 µM (active) | 17.4 µM (inactive) |  | 
7 | CCCCN(CCCC)C(=O)C(=O)C(C#N)c1ccc(C)cc1 (centres undefined) | > 100 µM (inactive) | > 100 µM (inactive) | > 100 µM (inactive) | > 100 µM (inactive) | > 100 µM (inactive) | > 100 µM (inactive) | > 100 µM (inactive) | > 100 µM (inactive) | > 100 µM (inactive) | > 100 µM (inactive) | > 100 µM (inactive) | > 100 µM (inactive) | > 100 µM (inactive) | > 100 µM (inactive) | > 100 µM (inactive) | > 100 µM (inactive) | > 100 µM (inactive) |  | > 100 µM (inactive)
8 | O=C(O)C1Cc2c([nH]c3ccccc23)C=N1 (centres undefined) | > 100 µM (inactive) | > 100 µM (inactive) | > 100 µM (inactive) | > 100 µM (inactive) | > 100 µM (inactive) | > 100 µM (inactive) | > 100 µM (inactive) | > 100 µM (inactive) | > 100 µM (inactive) | > 100 µM (inactive) | > 100 µM (inactive) | > 100 µM (inactive) | > 100 µM (inactive) | > 100 µM (inactive) | > 100 µM (inactive) | > 100 µM (inactive) | > 100 µM (inactive) |  | 
9 | CCOC(=O)C1=C(Nc2ccccc2)OC/C1=N\NC(=O)Cc1ccccc1 | > 50 µM (inactive) | > 50 µM (inactive) | 31.4 µM (inactive) | > 50 µM (inactive) | > 50 µM (inactive) | > 50 µM (inactive) | > 50 µM (inactive) | > 50 µM (inactive) | > 50 µM (inactive) | > 50 µM (inactive) | > 50 µM (inactive) | > 50 µM (inactive) | > 50 µM (inactive) | > 50 µM (inactive) | > 50 µM (inactive) | > 50 µM (inactive) | > 50 µM (inactive) |  | > 50 µM (inactive)
10 | CC(=O)NC1=C(NCC(C)(C)C)C(=O)c2ccccc2C1=O | 50.2 µM (inactive) | 57.3 µM (inactive) | 96.6 µM (inactive) |  | > 100 µM (inactive) |  | 37 µM (inactive) | > 100 µM (inactive) | 40.2 µM (inactive) | > 100 µM (inactive) | 76.9 µM (inactive) | 66.8 µM (inactive) |  | 33.7 µM (inactive) | 38.2 µM (inactive) | 98.4 µM (inactive) | 66.5 µM (inactive) | > 100 µM (inactive) | > 100 µM (inactive)
11 | CN1C(=O)NC2(O)c3ccccc3C(=O)C12O (centres undefined) | > 100 µM (inactive) | > 100 µM (inactive) | > 100 µM (inactive) |  | > 100 µM (inactive) | > 100 µM (inactive) |  |  |  | > 100 µM (inactive) | > 100 µM (inactive) | > 100 µM (inactive) | > 100 µM (inactive) | > 100 µM (inactive) | > 100 µM (inactive) | > 100 µM (inactive) | > 100 µM (inactive) | > 100 µM (inactive) | > 100 µM (inactive)
12 | CC(C)(C)C1=NO[C@H]2[C@@H](NC(=O)c3ccccc3)CC[C@@H]12 | > 100 µM (inactive) | > 100 µM (inactive) | 38.3 µM (inactive) |  | > 100 µM (inactive) | > 100 µM (inactive) | > 100 µM (inactive) | > 100 µM (inactive) | > 100 µM (inactive) | > 100 µM (inactive) |  | > 100 µM (inactive) | > 100 µM (inactive) | > 100 µM (inactive) | > 100 µM (inactive) | > 100 µM (inactive) | > 100 µM (inactive) | > 100 µM (inactive) | > 100 µM (inactive)
